Laboratory results published in patent US20050153033A1, “Lactic acid bacteria for the treatment of food” (priority 2003, published 2005).

Test system: C. maltaromaticum strains (CB1, CB2, CB3, LV17, UAL26, ATCC 35586 and ATCC43225)
Test: Antibiotic resistance, overall statement for the strains tested
Format: cell-based, Carnobacterium maltaromaticum
Details: overall statement on Table 3
From the text: The strains specified in this GRAS document (e.g., Carnobacterium maltaromaticum strains CB1, CB2, CB3, LV17, UAL26, ATCC 35586 AND ATCC43225) have been tested for their resistance to 27 antibiotics (Table 3; Griffiths Labs, 2004).

| Molecule | Sensitivity of the C. maltaromaticum strains tested, overall |
| --- | --- |
| O=C(N[C@H](CO)[C@H](O)c1ccc([N+](=O)[O-])cc1)C(Cl)Cl [Chloramphenicol] | sensitive |
| O=C(O)c1cn(C2CC2)c2cc(N3CCNCC3)c(F)cc2c1=O [Ciprofloxacin] | sensitive |
| CC[C@H]1OC(=O)[C@H](C)[C@@H](O[C@H]2C[C@@](C)(OC)[C@@H](O)[C@H](C)O2)[C@H](C)[C@@H](O[C@@H]2O[C@H](C)C[C@H](N(C)C)[C@H]2O)[C@](C)(O)C[C@@H](C)C(=O)[C@H](C)[C@@H](O)[C@]1(C)O [Erythromycin] | sensitive |
| CCN[C@@H]1C[C@H](N)[C@@H](O[C@H]2OC(CN)=CC[C@H]2N)[C@H](O)[C@H]1O[C@H]1OC[C@](C)(O)[C@H](NC)[C@H]1O [Netilmicin] | sensitive |
| CO[C@H]1/C=C/O[C@@]2(C)Oc3c(C)c(O)c4c(O)c(c(/C=N/N5CCN(C)CC5)c(O)c4c3C2=O)NC(=O)/C(C)=C\C=C\[C@H](C)[C@H](O)[C@@H](C)[C@@H](O)[C@@H](C)[C@H](OC(C)=O)[C@@H]1C [Rifampin] | sensitive |
| NC[C@H]1O[C@H](O[C@H]2[C@H](O)[C@@H](O[C@H]3O[C@H](CO)[C@@H](O)[C@H](N)[C@H]3O)[C@H](N)C[C@@H]2N)[C@H](N)C[C@@H]1O [Tobramycin] | sensitive |
| Amoxicillin + clavulanic acid | sensitive |
| Gentamicin | sensitive |
